pIC50: −log10 of the molar value.
Tests used:
H3N2 (influenza virus) [1] = settings: H3N2 in host cell MDCK
H1N1 (influenza virus) [2] = settings: H1N1 in host cell MDCK
in vitro [3] = settings: dog
H3N2 (influenza virus) [4] = assay: microbe, parasite or virus in culture; settings: Influenza A virus, H3N2, MDCK
H1N1 (influenza virus) [5] = assay: microbe, parasite or virus in culture; settings: Influenza A virus, H1N1, MDCK
[6] = system: Dengue Virus 2 (type 2 dengue virus); assay: Inhibition of viral replication (CPE) at cellular level, Dengue Virus 2 in Vero; format: cell-based; settings: Dengue Virus 2 in host cell Vero
From the text: Activity Test for Inhibition of Viral Replication at Cellular Level […]
The present inventors tested inhibitory effects of the compound of the present invention on cytopathic effects (CPE) caused by viral infection on mammalian cells.
Half-inhibitory concentration IC50 and half toxic concentration TC50 of the compound against Dengue Virus 2 (type 2 dengue virus) in host cell Vero (African green monkey kidney cell).

[7] = Determination of TC50 (half toxicity concentration) in RD cells; format: cell-based; settings: human, host cell RD, EV71 table
[8] = system: EV71 (hand-foot-and-mouth virus); settings: EV71 in host cell RD
in vitro [9] = settings: African green monkey, TC50, host cell Vero
H7N9 (influenza virus) = assay: microbe, parasite or virus in culture; settings: Influenza A virus, H7N9, MDCK
[10] = system: EV71 (hand-foot-and-mouth virus); assay: microbe, parasite or virus in culture; settings: Enterovirus A
[11] = system: RSV (human respiratory syncytial virus); assay: Inhibition of viral replication (CPE) at cellular level, RSV in Vero
Zika Virus = assay: Inhibition of viral replication (CPE) at cellular level, Zika Virus in Vero
[12] = TC50, host cell MDCK, H1N1 table
[13] = TC50, host cell MDCK, H3N2 table

| Compound | SI (TC50/IC50) (H3N2 (influenza virus) [1]) | SI (TC50/IC50) (H1N1 (influenza virus) [2]) | CC50 (in vitro [3]; [12]) | CC50 (in vitro [3]; [13]) | pIC50 (H3N2 (influenza virus) [4]; H3N2 in host cell MDCK, CPE) | pIC50 (H1N1 (influenza virus) [5]; H1N1 in host cell MDCK, CPE) | other results |
| --- | --- | --- | --- | --- | --- | --- | --- |
| CCCC(C)N(/N=C/c1ccccc1C(=O)O)c1nc(-c2ccccc2Cl)c(C)s1 (stereo not drawn) [Compound 22, (E)-5-methyl-4-(2-chlorophenyl)-2-[1-(2-amyl)-2-(2-carboxybenzylidene)hydrazino]thiazole] | 1.6 | 2.7 | 148 µM | 415 µM | 3.61 | 4.26 |  |
| CCc1sc(N/N=C/c2ccccc2C(=O)O)nc1-c1ccccc1Cl [Compound 14, (E)-5-ethyl-4-(2-chlorophenyl)-2-(2-carboxylbenzylidenehydrazino)thiazole] | 0.16 | 2.1 | 88 µM | 91 µM | 3.26 | 4.39 |  |
| CN(/N=C/c1cc(N)c(F)cc1C(=O)O)c1nc(-c2ccccc2Cl)cs1 [Compound 25] |  |  |  |  | 3.13 | 3.31 |  |
| O=C(O)c1ccccc1/C=N/N(CCO)c1nc(-c2ccccc2Cl)cs1 [Compound 7] | 0.5 | 1.6 | 355 µM | 124 µM | 3.61 | 3.66 |  |
| CCC(C)N(/N=C/c1ccccc1C(=O)O)c1nc(-c2ccccc2Cl)cs1 (stereo not drawn) [Compound 5, (E)-4-(2-chlorophenyl)-2-[1-(2-butyl)-2-(2-carboxybenzylidene)hydrazino]thiazole] | 0.37 | 1.3 | 68 µM | 89 µM | 3.61 | 4.28 |  |
| CC(C)N(/N=C/c1ccccc1C(=O)O)c1nc(-c2ccccc2Cl)cs1 [Compound 4, (E)-4-(2-chlorophenyl)-2-[1-isopropyl-2-(2-carboxybenzylidene)hydrazino]thiazole] | 0.31 | 8.8 | 23 µM | 35 µM | 3.95 | 5.59 |  |
| O=C(O)c1ccccc1/C=N/Nc1nc(-c2cc(Cl)ccc2Cl)cs1 [Compound 55, (E)-2-((2-(4-(2,5-dichlorophenyl)thiazol-2-yl)hydrazono)methyl)benzoic Acid] | 45.6 | 50 |  |  |  |  | SI (TC50/IC50) [6]: 110; pIC50 ([6]; CPE): 6.20; CC50 [7]: 3.1 µM; SI (TC50/IC50) [8]: 6; CC50 (in vitro [3]; TC50): 547 µM; CC50 (in vitro [9]; Dengue Virus 2 table): 69 µM; CC50 (in vitro [9]; RSV table): 154 µM; CC50 (in vitro [9]; Zika Virus table): 68 µM; pIC50 (H3N2 (influenza virus) [4]): 4.92; pIC50 (H1N1 (influenza virus) [5]): 5.09; pIC50 (H7N9 (influenza virus)): 5.16; pIC50 [10]: 6.29; SI (TC50/IC50) ([11]; RSV in host cell Vero): 19; pIC50 ([11]; human respiratory syncytial virus, Vero): 5.09; SI (TC50/IC50) (Zika Virus; Zika Virus in host cell Vero): 206; pIC50 (Zika Virus; Zika virus, Vero): 6.48 |
| Cc1sc(N(C)/N=C/c2ccccc2C(=O)O)nc1-c1ccccc1Cl [Compound 13] | 3.27 | 1.3 | 87 µM | 373 µM | 3.94 | 4.19 |  |
| CN(/N=C/c1cc(O)c(F)cc1C(=O)O)c1nc(-c2ccccc2Cl)cs1 [Compound 24] |  |  |  |  | 3.82 | 3.49 |  |
| O=C(O)c1ccccc1/C=N/Nc1nc(-c2ccc3ccccc3c2)cs1 [Compound 56, (E)-2-((2-(4-(naphthalen-2-yl)thiazol-2-yl)hydrazono)methyl)benzoic Acid] |  |  |  |  | 3.26 | 2.64 |  |
| Cc1sc(N/N=C/c2ccccc2C(=O)O)nc1-c1ccccc1 [Compound 17, (E)-5-methyl-4-phenyl-2-(2-carboxylbenzylidenehydrazino)thiazole] | 62.6 | 7 | 561 µM | 94 µM | 5.82 | 5.09 |  |
| O=C(O)c1ccccc1/C=N/Nc1nc(-c2ccccc2)cs1 [Compound 18, (E)-4-phenyl-2-(2-carboxybenzylidenehydrazino)thiazole] | 3.3 | 12 | 124 µM | 148 µM | 4.35 | 4.99 |  |
| CN(/N=C/c1cc(F)c(F)cc1C(=O)O)c1nc(-c2ccccc2Cl)cs1 [Compound 23] |  | 223 | 87 µM |  |  | 6.41 | CC50 (in vitro [3]; TC50): 54 µM; pIC50 (H7N9 (influenza virus)): 6.46 |
| CCCC(C)N(/N=C/c1ccccc1C(=O)O)c1nc(-c2ccccc2Cl)cs1 (stereo not drawn) [Compound 6, (E)-4-(2-chlorophenyl)-2-[1-(2-amyl)-2-(2-carboxybenzylidene)hydrazino]thiazole] | 0.18 | 2 | 451 µM | 97 µM | 3.26 | 3.91 |  |
| COc1cccc(-c2csc(N/N=C/c3ccccc3C(=O)O)n2)c1 [Compound 52, (E)-2-((2-(4-(3-methoxyphenyl)thiazol-2-yl)hydrazono)methyl)benzoic Acid] |  |  |  |  | 3.83 | 2.91 |  |
| CN(/N=C/c1ccccc1C(=O)O)c1nc(-c2cc(Cl)ccc2Cl)cs1 [Compound 19, (E)-4-(2,5-dichlorophenyl)-2-[1-methyl-2-(2-carboxybenzylidene)hydrazino]thiazole] | 47.8 | 46 | 26 µM | 43 µM | 6.05 | 6.25 |  |
| Cc1ccc(-c2csc(N/N=C/c3ccccc3C(=O)O)n2)cc1 [Compound 54, (E)-2-((2-(4-(p-tolyl)thiazol-2-yl)hydrazono)methyl)benzoic Acid] |  |  |  |  | 3.49 | 3.95 |  |
| Cc1sc(N/N=C/c2ccccc2C(=O)O)nc1-c1ccccc1Cl [Compound 15, (E)-5-methyl-4-(2-chlorophenyl)-2-(2-carboxylbenzylidenehydrazino)thiazole] |  | 3.3 | 412 µM | 88 µM | 3.45 | 3.91 |  |
| CN(/N=C/c1ccccc1C(=O)O)c1nc(-c2cccc(Cl)c2)cs1 [Compound 21, (E)-4-(3-chlorophenyl)-2-[1-methyl-2-(2-carboxybenzylidene)hydrazino]thiazole] | 19.6 | 7.6 | 41 µM | 49 µM | 5.60 | 5.27 |  |
| O=C(O)c1c(F)cccc1/C=N/Nc1nc(-c2ccccc2Cl)cs1 [Compound 58, (E)-2-((2-(4-(2-chlorophenyl)thiazol-2-yl)hydrazono)methyl)-6-fluorobenzoic Acid] |  | 45 | 254 µM |  | 3.44 | 5.25 |  |
| Cc1ccc(/C=N/N(C)c2nc(-c3ccccc3)c(C)s2)c(C(=O)O)c1 [Compound 11, (E)-5-methyl-4-phenyl-2-[1-methyl-2-(4-methyl-2-carboxybenzylidene)hydrazino]thiazole] | 2.72 | 47 | 241 µM | 234 µM | 4.07 | 5.29 | CC50 (in vitro [3]; TC50): 54 µM; pIC50 (H7N9 (influenza virus)): 4.85 |
| CCCN(/N=C/c1ccccc1C(=O)O)c1nc(-c2ccccc2Cl)cs1 [Compound 3, (E)-4-(2-chlorophenyl)-2-[1-propyl-2-(2-carboxybenzylidene)hydrazino]thiazole] | 2.08 | 7 | 86 µM | 52 µM | 4.60 | 4.91 |  |
| O=C(O)c1ccccc1/C=N/Nc1nc(-c2ccc(-c3ccccc3)cc2)cs1 [Compound 57, (E)-2-((2-(4-(biphenyl-4-yl)thiazol-2-yl)hydrazono)methyl)benzoic Acid] |  |  |  |  | 2.35 | 2.89 |  |
| NC(=O)c1cccc(-c2csc(N/N=C/c3ccccc3C(=O)O)n2)c1 [Compound 53, (E)-2-((2-(4-(3-aminoformylphenyl)thiazol-2-yl)hydrazono)methyl)benzoic Acid] |  |  |  |  | 3.67 | 3.11 |  |
| CN(/N=C/c1ccccc1C(=O)O)c1nc(-c2ccccc2)cs1 [Compound 20, (E)-4-phenyl-2-[1-methyl-2-(2-carboxybenzylidene)hydrazino]thiazole] | 11 | 22.8 | 57 µM | 57 µM | 5.28 | 5.60 |  |

— US11590109B2 (priority 2016, dated 2023)
